tested on: Acar3; assay type: binding, great reed warbler Acrocephalus arundinaceus; conditions: Table S1; top 94 PSCPL-scoring peptides; SPA, 10µM peptide, 125I β2m, folding over night at 18°C, dissociation measured up to 24 hours at 37°C

In order of rising “Stability T½ of Acar3 in complex with the peptide” value:
1. SYPPPPASF [9-mer peptide]  12 min
2. SQMGLSCAL [9-mer peptide]  18 min
3. LPRWPPPQL [9-mer peptide]  18 min
4. FRMLAWHVL [9-mer peptide]  18 min
5. KTAAAAAAF [9-mer peptide]  24 min
6. KMAAFPETL [9-mer peptide]  24 min
7. LRWLAKSFF [9-mer peptide]  30 min
8. FQMGGIGPM [9-mer peptide]  42 min
9. REMINHYQV [9-mer peptide]  42 min
10. WQLTSIWPI [9-mer peptide]  42 min
11. FHMSKPSDL [9-mer peptide]  48 min
12. YWMGGTTYF [9-mer peptide]  48 min
13. WMACNSAAF [9-mer peptide]  54 min
14. VPMEKLKAL [9-mer peptide]  84 min
15. GLAATSFPL [9-mer peptide]  90 min
16. MTYKAAFDL [9-mer peptide]  108 min
17. AKIEAPLLL [9-mer peptide]  150 min
18. YMWECPDFF [9-mer peptide]  156 min
19. KAMSTPFSL [9-mer peptide]  318 min
20. GMVGAEFSL [9-mer peptide]  456 min

same assay, conditions: Table S5; half-life estimated from dissociation in scintillation proximity assay; Acar3

In order of rising “Stability T½ (h), peptide - Acar3” value:
1. AANMYIYPL [9-mer peptide]  0.1 h
2. KQLEYSWVL [9-mer peptide]  0.1 h
3. SMHFYGWSL [9-mer peptide]  0.2 h
4. KQLELFWVI [9-mer peptide]  0.2 h
5. SMFERDFHF [9-mer peptide]  0.2 h
6. WLAKSFFEL [9-mer peptide]  0.2 h
7. SYPPPPASF [9-mer peptide]  0.2 h
8. RMMGKTNPL [9-mer peptide]  0.2 h
9. SQMGLSCAL [9-mer peptide]  0.3 h
10. LPRWPPPQL [9-mer peptide]  0.3 h
11. FRMLAWHVL [9-mer peptide]  0.3 h
12. KTAAAAAAF [9-mer peptide]  0.4 h
13. KMAAFPETL [9-mer peptide]  0.4 h
14. LRWLAKSFF [9-mer peptide]  0.5 h
15. FQMGGIGPM [9-mer peptide]  0.7 h
16. REMINHYQV [9-mer peptide]  0.7 h
17. WQLTSIWPI [9-mer peptide]  0.7 h
18. FHMSKPSDL [9-mer peptide]  0.8 h
19. YWMGGTTYF [9-mer peptide]  0.8 h
20. WMACNSAAF [9-mer peptide]  0.9 h
21. VPMEKLKAL [9-mer peptide]  1.4 h
22. GLAATSFPL [9-mer peptide]  1.5 h
23. MTYKAAFDL [9-mer peptide]  1.8 h
24. AKIEAPLLL [9-mer peptide]  2.5 h
25. YMWECPDFF [9-mer peptide]  2.6 h
26. KAMSTPFSL [9-mer peptide]  5.3 h
27. GMVGAEFSL [9-mer peptide]  7.6 h

tested on: Acar19; assay type: binding, great reed warbler Acrocephalus arundinaceus; conditions: Table S5, half-life estimated from dissociation in scintillation proximity assay

In order of rising “Stability T½ (h), peptide - Acar19” value:
1. VQHNIKHSF [9-mer peptide]  0.1 h
2. ETFRLLRSF [9-mer peptide]  0.1 h
3. IAAPNMIAV [9-mer peptide]  0.1 h
4. GFPSLESSF [9-mer peptide]  0.1 h
5. DTETLTTMF [9-mer peptide]  0.1 h
6. ISARGQELF [9-mer peptide]  0.1 h
7. VTNRHEEKF [9-mer peptide]  0.1 h
8. IAKGIDAEF [9-mer peptide]  0.1 h
9. ENALLVALF [9-mer peptide]  0.1 h
10. MAMGILHTI [9-mer peptide]  0.1 h
11. DPSGAYFAW [9-mer peptide]  0.1 h
12. YISPIFIPM [9-mer peptide]  0.1 h
13. YFDPANGKF [9-mer peptide]  0.1 h
14. FWPQHFGLI [9-mer peptide]  0.1 h
15. HAATNFREI [9-mer peptide]  0.1 h
16. ITDWLNFTL [9-mer peptide]  0.1 h
17. QTSSIEGAW [9-mer peptide]  0.1 h
18. IYGIFQSTF [9-mer peptide]  0.1 h
19. ISASLAALF [9-mer peptide]  0.1 h
20. IFDDLQGSL [9-mer peptide]  0.1 h
21. TYMFTHIDL [9-mer peptide]  0.1 h
22. NAFHHPSAV [9-mer peptide]  0.1 h
23. YTYPIAHTA [9-mer peptide]  0.1 h
24. LYIEILRLL [9-mer peptide]  0.1 h
25. DVSPILEAY [9-mer peptide]  0.1 h
26. KSNGAQQWL [9-mer peptide]  0.1 h
27. DPNPQEMVL [9-mer peptide]  0.1 h
28. NTARLMAGA [9-mer peptide]  0.2 h
29. YNAELLVAL [9-mer peptide]  0.2 h
30. IQNKLSSTF [9-mer peptide]  0.2 h
31. DISPTNIPL [9-mer peptide]  0.2 h
32. DTDPLPVVF [9-mer peptide]  0.2 h
33. YQAGISAAL [9-mer peptide]  0.2 h
34. FSIMIYFTF [9-mer peptide]  0.2 h
35. DAAKNQVAM [9-mer peptide]  0.2 h
36. IPAPGLGAL [9-mer peptide]  0.2 h
37. LAASVFFTF [9-mer peptide]  0.2 h
38. NPSVLKILL [9-mer peptide]  0.2 h
39. QYPAFVLFI [9-mer peptide]  0.2 h
40. IYTVIYYIF [9-mer peptide]  0.2 h
41. TNTQNNDWF [9-mer peptide]  0.2 h
42. GYAWIDFDI [9-mer peptide]  0.2 h
43. KDPENFDHF [9-mer peptide]  0.2 h
44. YYSNKVFPI [9-mer peptide]  0.2 h
45. TFMYVFSTF [9-mer peptide]  0.2 h
46. DHIPIINTL [9-mer peptide]  0.3 h
47. DQIRNMSVI [9-mer peptide]  0.3 h
48. KFHQIEKEF [9-mer peptide]  0.3 h
49. DFGYATMAK [9-mer peptide]  0.3 h
50. DMWEHAFYL [9-mer peptide]  0.3 h
51. DWSGYSGSF [9-mer peptide]  0.3 h
52. HTAEIQQFF [9-mer peptide]  0.3 h
53. AFHQLVQVI [9-mer peptide]  0.3 h
54. HYNAFQWAI [9-mer peptide]  0.3 h
55. IYAAISYMI [9-mer peptide]  0.3 h
56. MFMMIFHFV [9-mer peptide]  0.4 h
57. DIQKLVGKL [9-mer peptide]  0.4 h
58. FSPRLCRPF [9-mer peptide]  0.4 h
59. LYPTFYCLF [9-mer peptide]  0.4 h
60. YYNAFQWAI [9-mer peptide]  0.4 h
61. EDFEIFYNL [9-mer peptide]  0.4 h
62. EAAKNVECI [9-mer peptide]  0.4 h
63. DPNPQEVVL [9-mer peptide]  0.4 h
64. DTAKAFAYL [9-mer peptide]  0.5 h
65. DFISMYFPW [9-mer peptide]  0.5 h
66. NVGRILGYV [9-mer peptide]  0.5 h
67. DYLQYVLQI [9-mer peptide]  0.5 h
68. DVVPMVTQM [9-mer peptide]  0.6 h
69. IPNYLEIEI [9-mer peptide]  0.6 h
70. NYFNRMFHF [9-mer peptide]  0.7 h
71. NPLEIYQEI [9-mer peptide]  0.8 h
72. MPARLWLCL [9-mer peptide]  0.9 h
73. FFSPVIASL [9-mer peptide]  0.9 h
74. DASFNASAI [9-mer peptide]  1.0 h
75. EYAPFARLL [9-mer peptide]  1.1 h
76. SFIPIFYQF [9-mer peptide]  1.2 h
77. DWMERIEDF [9-mer peptide]  1.4 h
78. DSIMLTATF [9-mer peptide]  1.5 h
79. DALLNEENL [9-mer peptide]  2.0 h
80. DTRAIDQFF [9-mer peptide]  2.3 h
81. DYAMHGTVF [9-mer peptide]  2.4 h
82. EFKQILTDF [9-mer peptide]  3.6 h
83. DIKLIDIAL [9-mer peptide]  3.7 h
84. MYLRTIYDL [9-mer peptide]  4.0 h
85. DFIANTETI [9-mer peptide]  4.7 h
86. MSNPLTSPI [9-mer peptide]  6.3 h
87. DYLQCVLQI [9-mer peptide]  6.6 h
88. NYMPYVFTL [9-mer peptide]  14.9 h

From PMC10360169 (Frontiers in Immunology, 2023)
